# From patent US20210333284A1, “METHODS AND MATERIALS FOR LARGE-SCALE ASSESSMENT OF LIGAND BINDING SELECTIVITY OF G-QUADRUPLEX RECOGNITION USING CUSTOM G4 MICROARRAYS” (Purdue Research Foundation, priority 2020, published 2021)
# Assays:
# [1] = target: various G4 structures (MYC, VEGF, human telomeric G4s); assay: Apparent dissociation constant by BMVC fluorescence; format: binding; conditions: 20 nM BMVC, 25° C.
# Procedure: FIG. 11 Apparent dissociation constant (Kd, app) of BMVC binding to various G4 structures determined by BMVC fluorescence. Conditions: 20 nM BMVC, 25° C., pH 7, 100 mM K+ (100 mM Na+ for wtTel22).
# [2] = tested on: basket-type (wtTel22 in Na+) and hybrid-type (Tel26 in K+) human telomeric G4s; assay: 1D 1H NMR titration with telomeric G4s; format: binding
# Description: The binding selectivity of BMVC to G4 structures and flanking sequences was confirmed by NMR titration experiments of BMVC to different G4 sequences, including parallel-stranded MYC_14/23T G4 and its 5′- and 3′-flanking variants, VEGF and MYC1234 G4s, basket-type human telomeric G4 (wtTel22 in Na+), and hybrid type human telomeric G4 (Tel26 in K+) (FIG. 12). BMVC binds best to the MYC_14/23T G4, as indicated by well-resolved imino proton peaks for BMVC complexes (FIG. 12, panel a). […] In contrast, the 3′-end binding of BMVC is sensitive to the mutations at the 3′-flanking sequence, with a clear preference for the 3′-flanking T. In addition, BMVC prefers at least two flanking bases for a specific binding.
# G4 DNA oligonucleotides were synthesized using β-cyanoethylphosphoramidite solid-phase chemistry (Applied Biosystem Expedite 8909), as described previously. NMR experiments were performed on a Bruker AV-III-500-HD equipped with a BBFO Z-gradient cryoprobe. DNA samples were heated to 95° C. for 5 min, then cooled slowly for G4 formation. For the 1D 1H NMR experiments, samples contained 100-250 μM DNA in an appropriate buffer solution with 10% D2O for the lock. The titrations were performed by adding increasing amounts of the compounds to the DNA samples in solution.
# [3] = tested on: G4 sequences on custom G4 microarray; assay: G4 microarray competition of unlabeled molecule with Cy5-PDS; format: binding, human
# Description: Whether the microarray platform could be used to reveal the G4-binding specificity of unlabeled molecules via a competition with Cy5-PDS binding was explored. Three example molecules, unlabeled PDS, TMPyP4 (a planar molecule that nonspecifically binds G4 structures^14), and DC-34 (a molecule that selectively binds the MYC G4^15) were examined. […] The binding of unlabeled DC-34 was examined (FIG. 4). There appear to be no features that are better-bound in the presence of DC-34. […] This is consistent with the observation that DC-34 binds the top and bottom surfaces of the G4 and makes specific contacts with purines in the tail sequences.^15 The general properties of features in which DC-34 reduced binding of Cy5-PDS (ratio of PDS/PDS+DC-34) were also examined.
# Microarrays were preincubated with a 100 mM potassium chloride solution for 1 h at RT to induce G4 formation. Protein binding microarray experiments were then performed as previously described.^23 Microarrays were blocked with 4% nonfat dry milk in a potassium phosphate buffer before incubation with proteins or small molecules. Expressed proteins were blocked with 4% nonfat dry milk, ssDNA, and BSA. For the validation experiments, microarrays were also treated with 100 mM lithium chloride to inhibit G4 formation. For experiments examining dsDNA, single-stranded DNA probes were made double-stranded using a primer complementary to a 24-mer constant sequence following the method described previously.^23,24 Double stranding efficiency was monitored using 4% Cy3-dCTP.
# Protein or molecule-bound microarrays were scanned with the G5761A SureScan Dx Microarray Scanner System (Agilent) to detect a Cy5 signal at two laser settings (30 and 100 PMT) to ensure signal intensities were below saturation. Spot intensities from microarray images were extracted using the Agilent Feature Extraction Software and are reported as raw fluorescence units. All binding assays were performed at least twice, with high agreement between replicates (R>0.8). Microarrays with the fewest number of saturated spots were used for further analysis. […] The measured array data (Design 3, PDS) and predictions were normalized using the following
# Custom G4 microarrays have been designed that contain a total of 19,249 G4 DNA sequences [31, the entirety of disclosure of which, including the supplemental information, is incorporated herein by reference]. […] After washing to remove the unbound Cy5-PDS and BMVC, the fluorescence intensities of Cy5-PDS bound to DNA oligonucleotides were detected using a fluorescence scanner. The binding selectivity of BMVC to different G4 structures was assessed by measuring the relative fluorescence intensity reduction of Cy5-PDS as BMVC concentration increased. […]
compound,measurement,setting,value
"C[n+]1ccc(/C=C/c2ccc3[nH]c4ccc(/C=C/c5cc[n+](C)cc5)cc4c3c2)cc1.[I-].[I-] [BMVC, 3,6-Bis(1-methyl-4-vinylpyridinium) carbazole diiodide]","apparent dissociation constant (Kd, app), ranking for MYC_14/23T G4","[1]; pH 7, 100 mM K+",highest affinity
same,"binding to parallel G4s (MYC, VEGF) vs human telomeric G4s by fluorescence","[1]; pH 7, 100 mM K+ (100 mM Na+ for wtTel22)",stronger than the human telomeric G4s
same,binding to basket-type or hybrid-type human telomeric G4s by NMR titration,[2],did not show specific binding
same,binding selectivity profile to different G4 sequences,[3]; 1 μM unlabeled ligand and 1 μM Cy5-PDS,more pronounced binding selectivity
same,reduction of fluorescence intensity of Cy5-PDS,"[3]; most known G4s, 1 μM Cy5-PDS, equimolar (1 μM) BMVC",50%
